What was measured:
[1] = tested on: A375 melanoma cancer cell line; experiment: Methyl-Tetrazolium viability assay, A375; type: cell-based, human; settings: for ABSORBANCE: 0.1 μg/mL cisplatin; for Average absorbance, MTT 24 h / Average absorbance, MTT 48 h / Average absorbance, MTT 72 h: A375 Run 1
Description: (§1) Three different viability assays were chosen to complement each other and yielded results dependent on concentration and cell line: the Methyl Tetrazolium dye assay, the Sulforhodamine B fluorescent dye assay, and the Crystal Violet dye assay.
The Methyl-Tetrazolium dye assay measures the activity of enzymes in mitochondria. The dye precursor is taken up by cells, where it undergoes reduction to the purple formazan. It measures only the mitochondrial activity and, thus, it is not always a reliable indication of whether the cells themselves are alive or dead, since even a recently dead cell has […] enzyme activity in mitochondria. Intracellular glucose concentration, pH, and time before assay all affect the measurements.
(§2) The Methyl Tetrazolium, Sulforhodamine B, and Crystal Violet assays were used to assess cell viabilities. The incubation times were 24 hours, 48 hours, and 72 hours. The Nerium oleander extract Anvirzel™ (a hot water extract of oleander obtained from Salud Integral, Honduras) was tested in concentrations ranging from 0.01 ng/mL to 10 ng/mL.
(§3) Cells were detached by trypsinization (Trypsin-0.25% EDTA, Invitrogen, 25200-072) during the logarithmic phase of culture growth and plated in 96-well plates (18.000 cells/well) (Corning, Costar 359) in a final volume of 200 μl of medium per well. […] The absorbance was measured after 24 hours, 48 hours, and 72 hours of incubation.
For the Methyl-Tetrazolium assay, the dye (Sigma, M2128; 5 mg/mL, diluted in phosphate-buffered saline) was added to each well and plates were incubated for 3 hours at 37° C. After the end of the incubation period, the medium was discarded and the cells were rinsed with phosphate-buffered saline. Finally, the formazan crystals were dissolved in dimethylsulphoxide (Sigma, D4540).
(§4) The optical density of each plate was measured on a μQuant spectrophotometer and the data were analyzed with Gen5 software (μQuant Biomolecular Spectrophotometer MQX200 and Gen5™ Microplate Data Collection & Analysis software, BioTek® Instruments. Inc, April 2008). Absorbance was measured at 570 nm for all assays and a second wavelength was measured in order to subtract noise. For the Methyl-Tetrazolium assay this second wavelength was 630 nm and for the Sulforhodamine B and Crystal Violet assays it was 690 nm.

[2] = tested on: COLO699N lung cancer cell line; experiment: Sulforhodamine B viability assay, COLO699N; type: cell-based, human; set-up: key to SRB Average: absorbance (optical density) at 570 nm, second wavelength subtracted; settings: for Average SRB 24 h / Average SRB 48 h / Average SRB 72 h: COLO699N Run 1; for ABSORBANCE: COLO699N, 0.1 μg/mL cisplatin
Description: as §1
The Sulforhodamine B and Crystal Violet assays provide information about protein and were used to complement the Methyl-Tetrazolium dye assay. […] It is used for the quantification of cellular proteins of cultured cells. The assay using Crystal Violet, a dye that binds electrostatically to proteins and stains DNA, provides a reliable, simple assay for measuring viability of cells.
as §2, §3
For the Sulforhodamine B assay, 96-well plates were fixed by 10% trichloroacetic acid (Fluka, 91228) and were incubated at 4° C. for 1 hour. Afterwards, plates were rinsed with water and cells were stained with 0.4% Sulforhodamine B (Sigma, 341738), dissolved in 1% acetic acid (Carlo Ebra, 401422) for 15 minutes at room temperature (RT). The unbound stain was washed twice with 1% acetic acid. Finally, 10 mM Tris Buffer pH 10.5 (Sigma, T6791) was added to dissolve the dye.
as §4

In the case of N.N.[Cl][Pt][Cl] [cisplatin], the ABSORBANCE ([1]; A375, 48 h) is reported as 0.332, the ABSORBANCE ([1]; A375, 72 h) is reported as 0.479 and the “Average absorbance, MTT 24 h” value ([1]; 0.1 μg/ml CDDP) is reported as 0.34. The “Average absorbance, MTT 48 h” value ([1]; 0.1 μg/ml CDDP) was 0.332, the “Average absorbance, MTT 72 h” value ([1]; 0.1 μg/ml CDDP) was 0.479 and the “Average absorbance, MTT 24 h” value ([1]; 1 μg/ml CDDP) was 0.068. The “Average absorbance, MTT 48 h” value ([1]; 1 μg/ml CDDP) was 0.048, the “Average absorbance, MTT 72 h” value ([1]; 1 μg/ml CDDP) was 0.042 and the “Average absorbance, MTT 24 h” value ([1]; 10 μg/ml CDDP) was 0.066. The “Average absorbance, MTT 48 h” value ([1]; 10 μg/ml CDDP) was 0.044, the “Average absorbance, MTT 72 h” value ([1]; 10 μg/ml CDDP) was 0.04 and the “Average absorbance, MTT 24 h” value ([1]; 100 μg/ml CDDP) was 0.049. For the same compound, the “Average absorbance, MTT 48 h” value ([1]; 100 μg/ml CDDP) was 0.038, the “Average absorbance, MTT 72 h” value ([1]; 100 μg/ml CDDP) was 0.036 and the “Average absorbance MTT” value ([1]; A375 Run 2, 24 h, 0.1 μg/ml CDDP) was 0.367. The “Average absorbance MTT” value ([1]; A375 Run 2, 24 h, 1 μg/ml CDDP) was 0.047, the “Average absorbance MTT” value ([1]; A375 Run 2, 24 h, 10 μg/ml CDDP) was 0.049 and the “Average absorbance MTT” value ([1]; A375 Run 2, 24 h, 100 μg/ml CDDP) was 0.031. The “Average absorbance MTT” value ([1]; A375 Run 2, 48 h, 0.1 μg/ml CDDP) was 0.598, the “Average absorbance MTT” value ([1]; A375 Run 2, 48 h, 1 μg/ml CDDP) was 0.046 and the “Average absorbance MTT” value ([1]; A375 Run 2, 48 h, 10 μg/ml CDDP) was 0.045. The “Average absorbance MTT” value ([1]; A375 Run 2, 48 h, 100 μg/ml CDDP) was 0.048, the “Average absorbance MTT” value ([1]; A375 Run 2, 72 h, 0.1 μg/ml CDDP) was 0.696 and the “Average absorbance MTT” value ([1]; A375 Run 2, 72 h, 1 μg/ml CDDP) was 0.049. For the same compound, the “Average absorbance MTT” value ([1]; A375 Run 2, 72 h, 10 μg/ml CDDP) was 0.042, the “Average absorbance MTT” value ([1]; A375 Run 2, 72 h, 100 μg/ml CDDP) was 0.038 and the “Average absorbance MTT” value ([1]; A375 Run 3, 24 h, 0.1 μg/ml CDDP) was 0.25. For the same compound, the “Average absorbance MTT” value ([1]; A375 Run 3, 24 h, 1 μg/ml CDDP) was 0.052, the “Average absorbance MTT” value ([1]; A375 Run 3, 24 h, 10 μg/ml CDDP) was 0.054 and the “Average absorbance MTT” value ([1]; A375 Run 3, 24 h, 100 μg/ml CDDP) was 0.01. For the same compound, the “Average absorbance MTT” value ([1]; A375 Run 3, 48 h, 0.1 μg/ml CDDP) was 0.422, the “Average absorbance MTT” value ([1]; A375 Run 3, 48 h, 1 μg/ml CDDP) was 0.041 and the “Average absorbance MTT” value ([1]; A375 Run 3, 48 h, 10 μg/ml CDDP) was 0.037. For the same compound, the “Average absorbance MTT” value ([1]; A375 Run 3, 48 h, 100 μg/ml CDDP) was 0.036, the “Average absorbance MTT” value ([1]; A375 Run 3, 72 h, 0.1 μg/ml CDDP) was 0.413 and the “Average absorbance MTT” value ([1]; A375 Run 3, 72 h, 1 μg/ml CDDP) was 0.026. The “Average absorbance MTT” value ([1]; A375 Run 3, 72 h, 10 μg/ml CDDP) was 0.033, the “Average absorbance MTT” value ([1]; A375 Run 3, 72 h, 100 μg/ml CDDP) was 0.031 and the “Average SRB 24 h” value ([2]; 0.1 μg/ml CDDP) was 1.552. The “Average SRB 48 h” value ([2]; 0.1 μg/ml CDDP, 48 h) was 1.317, the “Average SRB 72 h” value ([2]; 0.1 μg/ml CDDP, 72 h) was 1.658 and the “Average SRB 24 h” value ([2]; 1 μg/ml CDDP) was 1.526. For the same compound, the “Average SRB 48 h” value ([2]; 1 μg/ml CDDP, 48 h) was 1.388, the “Average SRB 72 h” value ([2]; 1 μg/ml CDDP, 72 h) was 1.152 and the “Average SRB 24 h” value ([2]; 10 μg/ml CDDP) was 1.384. For the same compound, the “Average SRB 48 h” value ([2]; 10 μg/ml CDDP, 48 h) was 1.524, the “Average SRB 72 h” value ([2]; 10 μg/ml CDDP, 72 h) was 0.922 and the “Average SRB 24 h” value ([2]; 100 μg/ml CDDP) was 1.085. The “Average SRB 48 h” value ([2]; 100 μg/ml CDDP, 48 h) was 1.452, the “Average SRB 72 h” value ([2]; 100 μg/ml CDDP, 72 h) was 1.114 and the ABSORBANCE ([2]; 48 h) was 1.975. The ABSORBANCE ([2]; 72 h) was 2.145, the “SRB Average” value ([2]; Run 2, 24 h, 0.1 μg/ml CDDP) was 1.709 and the “SRB Average” value ([2]; Run 2, 24 h, 1 μg/ml CDDP) was 1.61. For the same compound, the “SRB Average” value ([2]; Run 2, 24 h, 10 μg/ml CDDP) was 1.523, the “SRB Average” value ([2]; Run 2, 24 h, 100 μg/ml CDDP) was 1.354 and the “SRB Average” value ([2]; Run 2, 48 h, 0.1 μg/ml CDDP) was 1.975. For the same compound, the “SRB Average” value ([2]; Run 2, 48 h, 1 μg/ml CDDP) was 1.253, the “SRB Average” value ([2]; Run 2, 48 h, 10 μg/ml CDDP) was 1.27 and the “SRB Average” value ([2]; Run 2, 48 h, 100 μg/ml CDDP) was 1.256. For the same compound, the “SRB Average” value ([2]; Run 2, 72 h, 0.1 μg/ml CDDP) was 2.145, the “SRB Average” value ([2]; Run 2, 72 h, 1 μg/ml CDDP) was 1.256 and the “SRB Average” value ([2]; Run 2, 72 h, 10 μg/ml CDDP) was 1.524. For the same compound, the “SRB Average” value ([2]; Run 2, 72 h, 100 μg/ml CDDP) was 1.312, the “SRB Average” value ([2]; Run 3, 24 h, 0.1 μg/ml CDDP) was 1.99 and the “SRB Average” value ([2]; Run 3, 24 h, 1 μg/ml CDDP) was 1.839. For the same compound, the “SRB Average” value ([2]; Run 3, 24 h, 10 μg/ml CDDP) was 1.527, the “SRB Average” value ([2]; Run 3, 24 h, 100 μg/ml CDDP) was 1.387 and the “SRB Average” value ([2]; Run 3, 48 h, 0.1 μg/ml CDDP) was 1.978. The “SRB Average” value ([2]; Run 3, 48 h, 1 μg/ml CDDP) was 1.092, the “SRB Average” value ([2]; Run 3, 48 h, 10 μg/ml CDDP) was 1.259 and the “SRB Average” value ([2]; Run 3, 48 h, 100 μg/ml CDDP) was 1.218. The “SRB Average” value ([2]; Run 3, 72 h, 0.1 μg/ml CDDP) was 1.946, the “SRB Average” value ([2]; Run 3, 72 h, 1 μg/ml CDDP) was 1.249 and the “SRB Average” value ([2]; Run 3, 72 h, 10 μg/ml CDDP) was 1.014. For the same compound, the “SRB Average” value ([2]; Run 3, 72 h, 100 μg/ml CDDP) was 1.033.

Source: patent publication US20190343908A1, “Therapeutic Combination for the Treatment of Cancer” (Nerium Biotechnology Inc., priority 2011, published 2019)
